Laboratory results published in US7052850B2, “Isolated human EDG-4 receptor” (priority 1997, dated 2006).

Legend:
Format in all cases: cell-based
human EDG-5 = target: T1, human EDG-5 (Homo sapiens, UniProt Q9UBY5); test: NF-κB luciferase reporter in 293-EBNA cells, human EDG-5; details: 10 μM LPA overnight
T1 construct: expressed in transfected cells; host or cells: 293-EBNA
T1 sequence (Q9UBY5 1-353): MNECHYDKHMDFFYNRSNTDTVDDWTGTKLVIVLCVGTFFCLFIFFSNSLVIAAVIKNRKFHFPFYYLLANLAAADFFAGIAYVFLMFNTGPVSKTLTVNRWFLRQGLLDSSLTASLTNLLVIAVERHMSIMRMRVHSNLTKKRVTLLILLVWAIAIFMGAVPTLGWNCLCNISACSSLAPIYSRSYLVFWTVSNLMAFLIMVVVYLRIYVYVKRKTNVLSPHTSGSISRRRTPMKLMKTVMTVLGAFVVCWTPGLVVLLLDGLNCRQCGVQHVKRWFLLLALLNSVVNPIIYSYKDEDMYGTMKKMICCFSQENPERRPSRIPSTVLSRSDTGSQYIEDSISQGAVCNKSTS
Method: The above protocol for assay 1 was followed except for the following changes: • 1) 100 mm plates of 293-EBNA with a confluency of ˜80% were used for transfection. • 2) 3 μg NFκB-tk-p4Luc reporter DNA and 3 μg pC3-hedg1, pC3-hedg 3, pC3-redg4, pC3-hedg5 or pcDNA3 DNA was diluted in 240 μl OPTI-MEM (Gibco; Cat. 31985-062) • 3) 22 μl lipofectamine (Gibco; Cat. 1 8324-020) was diluted in 240 μl OPTI-MEM. • 4) The 293-EBNA plates were washed once with PBS and 7 ml OPTI-MEM was added to each plate. • 5) DNA/lipofectamine mixture was added to each plate of 293-EBNA cells. The plates were left for 4 hrs at 37° C. in a 5% CO2 incubator. Day 2: • 1) 0.01×10^6 cells were plated per well of 96-well Blackview plate coated with polyD-lysine. No cells were plated in the outside wells of the 96-well plate. Day 3: The following treatments were used for all transections:
293-EBNA cells were grown, lipofected in monolayer cultures, and pretreated as described above for Example 11, assay #1, except that NF-κB and AP-1 reporter-transfected cells were preteated for 6 hr in medium containing 0.5% […], then treated overnight in the same medium with or without 10 μM LPA.

COS-1 cells = test: IL-8 response in control COS-1 cells (empty vector pcDNA3); details: control cells transfected with pcDNA3; 5 μm S1P
pcDNA3-transfected cells = test: Calcium microfluorimetry (fura-2), pcDNA3-transfected 293-EBNA cells; details: 2 μM S1P
Method: Transfections were carried out with EDG receptors in 293-EBNA cells as described above, except that no reporter gene vector was included in the DNA mix. Two days after transfection, cells were harvested by trypsinization and plated at a density of 200,000 cells onto poly-D-lysine-coated coverslips in 100 μl of medium containing 0.5% FBS. After briefly allowing cell attachment to take place, 2 ml of medium without FBS was added and the cells were incubated overnight. The next day, cells were loaded with 5 μM fura-2 AM ester (Molecular Probes) for 60 min at RT, then washed and used for calcium microfluorimetry. […] Treatments were applied using a gravity-fed perfusion apparatus. Fluorescence emission was continuously monitored and recorded with PTI 2.060a software and analyzed with Sigma Plot software. Intracellular calcium concentrations were calculated by interpolation on a ratiometric fluorescence curve generated from fura-2 fluorescence in a calcium dilution series.

EDG-7 [1] = test: SRE reporter, EDG-7
EDG-7 [2] = test: NF-κB reporter, EDG-7

lysophosphatidic acid [LPA]
activation of the NF-κB reporter (human EDG-5): 3–4 fold

CCCCCCCCCCCCC/C=C/[C@@H](O)[C@@H](N)COP(=O)(O)O [S1P, sphingosine 1-phosphate]
IL-8 response to S1P (COS-1 cells): No IL-8
change in intracellular calcium (pcDNA3-transfected cells): approximately 60 nM
SRE reporter response (EDG-7 [1]): respond through the SRE reporter
NF-κB reporter response (EDG-7 [2]): fail to signal through NF-κB reporters
